Measured values as given in patent US8263606B2 (Xenon Pharmaceuticals Inc., priority 2008, dated 2012).

How the values were obtained:
CYP3A4 = CYP3A4 (Homo sapiens, UniProt P08684); test: Cytochrome P450 (CYP450) Inhibition Assay, CYP3A4 (Vivid fluorescence, BOMCC substrate); settings: human, P450 Baculosomes (recombinant CYP3A4), probe BOMCC (Vivid substrate)
sodium channel = test: Guanidine influx assay (14C-guanidine radiotracer flux, in vitro); type: cell-based, human or rat; settings: guanidine influx assay using a known cell line that expresses a sodium channel; activity level class
From the text: This example describes an in vitro assay for testing and profiling test agents against human or rat sodium channels stably expressed in cells of either an endogenous or recombinant origin. The assay is also useful for determining the IC50 of a sodium channel blocking compound. The assay is based on the guanidine flux assay described by Reddy, N. L., et al., J. Med. Chem. (1998), 41(17):3298-302.
The guanidine influx assay is a radiotracer flux assay used to determine ion flux activity of sodium channels in a high-throughput microplate-based format. The assay uses ^14C-guanidine hydrochloride in combination with various known sodium channel modulators, to assay the potency of test agents. Potency is determined by an IC50 calculation. Selectivity is determined by comparing potency of the compound for the channel of interest to its potency against other sodium channels (also called ‘selectivity profiling’).
Each of the test agents is assayed against cells that express the channels of interest. Voltage gated sodium channels are either TTX sensitive or insensitive. This property is useful when evaluating the activities of a channel of interest when it resides in a mixed population with other sodium channels. The following Table 1 summarizes cell lines useful in screening for a certain channel activity in the presence or absence of TTX.
It is also possible to employ recombinant cells expressing these sodium channels. Cloning and propagation of recombinant cells are known to those skilled in the art (see, for example, Klugbauer, N, et al., EMBO J. (1995), 14(6):1084-90; and Lossin, C., et al., Neuron (2002), 34, pp. 877-884).
Cells expressing the channel of interest are grown according to the supplier or in the case of a recombinant cell in the presence of selective growth media such as G418 (Gibco/Invitrogen). The cells are disassociated from the culture dishes with an enzymatic solution (Ix) Trypsin/EDTA (Gibco/Invitrogen) and analyzed for density and viability using haemocytometer (Neubauer). Disassociated cells are washed and resuspended in their culture media then plated into Scintiplates (Beckman Coulter Inc.) (approximately 100,000 cells/well) and incubated at 37° C./5% CO2 for 20-24 hours. After an extensive wash with Low sodium HEPES-buffered saline solution (LNHBSS) (150 mM Choline Chloride, […] (Sigma), 1 mM Calcium Chloride, 5 mM Potassium Chloride, 1 mM Magnesium Chloride, 10 mM Glucose) agents diluted with LNHBSS are added to each well. (Varying concentrations of test agent may be used). The activation/radiolabel mixture contains aconitine (Sigma) to increase the percentage of time that the sodium channels are open, and ^14C-guanidine hydrochloride (ARC) to measure flux through the voltage-gated sodium channels.
After loading the cells with test agent and activation/radiolabel mixture, the Scintiplates are incubated at ambient temperature. Following the incubation, the Scintplates are extensively washed with LNHBSS supplemented with guanidine (Sigma). The Scintiplates are dried and then counted using a Wallac MicroBeta TriLux (Perkin-Elmer Life Sciences). The ability of the test agent to block sodium channel activity is determined by comparing the amount of ^14C-guanidine present inside the cells expressing the different sodium channels.
The IC50 value of a test agent for a specific sodium channel may be determined using the above general method. […] Typically the mid-point concentration of test agent is set at 1 μM, and sequential concentrations of half dilutions greater or smaller are applied (e.g. 0.5 μM; 5 μM and 0.25 μM; 10 μM and 0.125 μM; 20 μM etc.). The IC50 curve is calculated using the 4 Parameter Logistic Model or Sigmoidal Dose-Response Model formula (fit=(A+((B−A)/(1+((C/x)^D)))).
The fold selectivity, factor of selectivity or multiple of selectivity, is calculated by dividing the IC50 value of the test sodium channel by the reference sodium channel, for example, Nav1.5. […]

Sequence of CYP3A4 (P08684 whole entry): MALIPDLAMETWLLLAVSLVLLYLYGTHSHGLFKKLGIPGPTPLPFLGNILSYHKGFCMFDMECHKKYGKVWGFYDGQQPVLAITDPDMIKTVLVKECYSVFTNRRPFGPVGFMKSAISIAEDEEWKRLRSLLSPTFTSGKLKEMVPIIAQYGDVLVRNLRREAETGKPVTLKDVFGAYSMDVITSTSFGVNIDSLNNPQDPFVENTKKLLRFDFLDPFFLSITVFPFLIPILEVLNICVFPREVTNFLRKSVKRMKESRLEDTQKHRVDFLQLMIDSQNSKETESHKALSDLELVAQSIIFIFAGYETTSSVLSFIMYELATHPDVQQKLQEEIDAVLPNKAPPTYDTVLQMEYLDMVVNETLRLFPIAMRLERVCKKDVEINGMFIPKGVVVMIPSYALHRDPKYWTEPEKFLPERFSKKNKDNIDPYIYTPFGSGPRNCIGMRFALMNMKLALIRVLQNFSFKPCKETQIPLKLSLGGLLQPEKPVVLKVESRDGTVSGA

| inhibition at 10 µM (CYP3A4) | IC50 (sodium channel) | Structure (SMILES) |
| --- | --- | --- |
| < 50% | 1 to 100 nM | O=C1N(C[C@@H]2CCCO2)c2ccccc2C12COc1cc3c(cc12)CCO3 (stereo partly drawn) [Example 4.5, 1′-[(2S)-tetrahydrofuran-2-ylmethyl]-5,6-dihydrospiro[benzo[1,2-b:5,4-b′]difuran-3,3′-indol]-2′(1′H)-one] |
| > 50% | 1 to 100 nM | COC(=O)c1ccc(CN2C(=O)C3(COc4cc5c(cc43)CCO5)c3ccccc32)o1 (stereo not drawn) [Example 4.7, methyl 5-[(2′-oxo-5,6-dihydrospiro[benzo[1,2-b:5,4-b′]difuran-3,3′-indol]-1′(2′H)-yl)methyl]furan-2-carboxylate] |
| > 50% | 100 to 1000 nM | Cn1cc(CN2C(=O)C3(COc4cc5c(cc43)CCO5)c3ccccc32)c(C(F)(F)F)n1 (stereo not drawn) [Example 4.9, 1′-{[1-methyl-3-(trifluoromethyl)-1H-pyrazol-4-yl]methyl}-5,6-dihydrospiro[benzo[1,2-b:5,4-b′]difuran-3,3′-indol]-2′(1′H)-one] |
| < 50% | 1 to 100 nM | COC(=O)c1coc(CN2C(=O)C3(COc4cc5c(cc43)CCO5)c3ccccc32)n1 (stereo not drawn) [Example 4.11, methyl 2-[(2′-oxo-5,6-dihydrospiro[benzo[1,2-b:5,4-b′]difuran-3,3′-indol]-1′(2′H)-yl)methyl]-1,3-oxazole-4-carboxylate] |
| < 50% | 1 to 100 nM | O=C1N(Cc2ccccc2F)c2ccccc2C12COc1cc3c(cc12)CCO3 (stereo not drawn) [Example 4.12, 1′-(2-fluorobenzyl)-5,6-dihydrospiro[benzo[1,2-b:5,4-b′]difuran-3,3′-indol]-2′(1′H)-one] |
| > 50% | 1 to 100 nM | O=C1N(Cc2ccc(F)cc2)c2ccccc2C12COc1cc3c(cc12)CCO3 (stereo not drawn) [Example 4.13, 1′-(4-fluorobenzyl)-5,6-dihydrospiro[benzo[1,2-b:5,4-b′]difuran-3,3′-indol]-2′(1′H)-one] |
| > 50% | 1 to 100 nM | O=C1N(Cc2ccccc2)c2ccccc2C12COc1cc3c(cc12)CCO3 (stereo not drawn) [Example 4.14, 1′-benzyl-5,6-dihydrospiro[benzo[1,2-b:5,4-b′]difuran-3,3′-indol]-2′(1′H)-one] |
| < 50% | 1 to 100 nM | O=C1N(Cc2ccc(-c3ccccc3)cc2)c2ccccc2C12COc1cc3c(cc12)CCO3 (stereo not drawn) [Example 4.15, 1′-(biphenyl-4-ylmethyl)-5,6-dihydrospiro[benzo[1,2-b:5,4-b′]difuran-3,3′-indol]-2′(1′H)-one] |
| > 50% | 1 to 100 nM | O=C1N(Cc2cc(Br)no2)c2ccccc2C12COc1cc3c(cc12)CCO3 (stereo not drawn) [Example 4.17, 1-[(3-bromoisoxazol-5-yl)methyl]-5,6-dihydrospiro[benzo[1,2-b:5,4-b′]difuran-3,3′-indol]-2′(1′H)-one] |
| > 50% | 1 to 100 nM | O=C1N(Cc2ccc(Br)o2)c2ccccc2C12COc1cc3c(cc12)CCO3 (stereo not drawn) [Example 4.18, 1′-[(5-bromofuran-2-yl)methyl]-5,6-dihydrospiro[benzo[1,2-b:5,4-b′]difuran-3,3′-indol]-2′(1′H)-one] |
| > 50% | 100 to 1000 nM | CCn1cncc1CN1C(=O)C2(COc3cc4c(cc32)CCO4)c2ccccc21 (stereo not drawn) [Example 4.21, 1′-[(1-ethyl-1H-imidazol-5-yl)methyl]-5,6-dihydrospiro[benzo[1,2-b:5,4-b′]difuran-3,3′-indol]-2′(1′H)-one] |
| > 50% | 1000 to 10000 nM | O=C1N(Cc2ccc(C(F)(F)F)o2)c2ccccc2C12CCOc1cc3c(cc12)CCO3 (stereo not drawn) [Example 4.70, 1-{[5-(trifluoromethyl)furan-2-yl]methyl}-2,3,6,7-tetrahydrospiro[furo[3,2-g]chromene-5,3′-indol]-2′(1′H)-one] |

More lines, now with the values behind:

| Structure (SMILES) | inhibition at 10 µM (CYP3A4) | IC50 (sodium channel) |
| --- | --- | --- |
| COc1cc2c(cc1C)C1(CO2)C(=O)N(Cc2ccccn2)c2ccccc21 (stereo not drawn) [Example 4.62, 6-methoxy-5-methyl-1′-(pyridin-2-ylmethyl)spiro[1-benzofuran-3,3′-indol]-2′(1′H)-one] | > 50% | 1000 to 10000 nM |
| CC(C)(C)OC(=O)NC(CCN1C(=O)C2(COc3cc4c(cc32)OCO4)c2ccccc21)C1CC1 (stereo not drawn) [Example 4.78, tert-butyl [1-cyclopropyl-3-(2′-oxospiro[furo[2,3-f][1,3]benzodioxole-7,3′-indol]-1′(2′H)-yl)propyl]carbamate] | > 50% | 1 to 100 nM |
| O=C1N(Cc2ccc(C(F)(F)F)o2)c2cccc(Cl)c2C12COc1cc3c(cc12)OCO3 (stereo not drawn) [Example 4.90, 4′-chloro-1′-{[5-(trifluoromethyl)-2-furyl]methyl}spiro[furo[2,3-f][1,3]benzodioxole-7,3′-indol]-2′(1′H)-one] | > 50% | 1 to 100 nM |
| O=C1N(Cc2ccc(C(F)(F)F)nc2)c2ccccc2C12COc1cc3c(cc12)OCCO3 (stereo not drawn) [Example 4.98, 1-{[6-(trifluoromethyl)pyridin-3-yl]methyl}-2,3-dihydrospiro[furo[2,3-g][1,4]benzodioxine-8,3′-indol]-2′(1′H)-one] | > 50% | 1 to 100 nM |
| CCC(=O)CN1C(=O)[C@@]2(COc3cc4c(cc32)OCCO4)c2ccccc21 [Example 4.109, (S)-1′-(2-oxobutyl)-3,7-dihydro-2H-spiro[benzofuro[5,6-b][1,4]dioxine-8,3′-indolin]-2′-one] | < 50% | 1 to 100 nM |
| N#Cc1ccc2c(c1)OCC21C(=O)N(Cc2ccc3c(c2)OCCO3)c2ccccc21 (stereo not drawn) [Example 4.111, 1′-(2,3-dihydro-1,4-benzodioxin-6-ylmethyl)-2′-oxo-1′,2′-dihydrospiro[1-benzofuran-3,3′-indole]-6-carbonitrile] | < 50% | 100 to 1000 nM |
| O=C1N(Cc2ncccc2Cl)c2ccccc2C12COc1cc3c(cc12)OCCO3 (stereo not drawn) [Example 4.112, 1-[(3-chloropyridin-2-yl)methyl]-2,3-dihydrospiro[furo[2,3-g][1,4]benzodioxine-8,3′-indol]-2′(1′H)-one] | > 50% | 1 to 100 nM |
| O=C1N(Cc2ncccc2C(F)(F)F)c2cccc(F)c2C12COc1cc3c(cc12)OCCO3 (stereo not drawn) [Example 5.20, 4′-fluoro-1′-{[3-(trifluoromethyl)pyridin-2-yl]methyl}-2,3-dihydrospiro[furo[2,3-g][1,4]benzodioxine-8,3′-indol]-2′(1′H)-one] | < 50% | 1 to 100 nM |
| O=C1N(Cc2ccccn2)c2ccccc2C12COc1cc3c(c(F)c12)OCCO3 (stereo not drawn) [Example 5.25, 9-fluoro-1′-(pyridin-2-ylmethyl)-2,3-dihydro-spiro[furo[2,3-g][1,4]benzodioxine-8,3′-indol]-2′(1′H)-one] | > 50% | 1 to 100 nM |
| O=C1N(Cc2ncccc2C(F)(F)F)c2ccccc2C12COc1cc3c(c(F)c12)OCCO3 (stereo not drawn) [Example 5.26, 9-fluoro-1′-{[3-(trifluoromethyl)pyridin-2-yl]methyl}-2,3-dihydrospiro[furo[2,3-g][1,4]benzodioxine-8,3′-indol]-2′(1′H)-one] | < 50% | 1 to 100 nM |
| O=C1N(Cc2ccc(O)cn2)c2ccccc2C12COc1cc3c(c(F)c12)OCCO3 (stereo not drawn) [Example 5.27, 9-fluoro-1′-[(5-hydroxypyridin-2-yl)methyl]-2,3-dihydrospiro[furo[2,3-g][1,4]benzodioxine-8,3′-indol]-2′(1′H)-one] | > 50% | 100 to 1000 nM |
| O=C1N(Cc2ccccn2)c2ccccc2C12COc1cc3c(cc12)OCCC3 (stereo not drawn) [Example 5.28, 1′-(pyridin-2-ylmethyl)-7,8-dihydro-6H-spiro-[furo[2,3-g]chromene-3,3′-indol]-2′(1′H)-one] | > 50% | 1 to 100 nM |
